Data taken from article PMC4290037, “Purification and Characterization of Glucose-6-Phosphate Dehydrogenase from Camel Liver” (Enzyme Research, 2014).

Target: T1, Glucose-6-phosphate dehydrogenase (camel liver G6PD) (Camelus dromedarius, UniProt G1EHI3)
T1 construct: native enzyme purified from camel liver (subunit 64 kDa, native 194 kDa)
Test: enzyme inhibition kinetics of purified enzyme (Lineweaver-Burk, Hill plot, slope replot)
Assay type: biochemical

T1 sequence (G1EHI3 entry or part of it): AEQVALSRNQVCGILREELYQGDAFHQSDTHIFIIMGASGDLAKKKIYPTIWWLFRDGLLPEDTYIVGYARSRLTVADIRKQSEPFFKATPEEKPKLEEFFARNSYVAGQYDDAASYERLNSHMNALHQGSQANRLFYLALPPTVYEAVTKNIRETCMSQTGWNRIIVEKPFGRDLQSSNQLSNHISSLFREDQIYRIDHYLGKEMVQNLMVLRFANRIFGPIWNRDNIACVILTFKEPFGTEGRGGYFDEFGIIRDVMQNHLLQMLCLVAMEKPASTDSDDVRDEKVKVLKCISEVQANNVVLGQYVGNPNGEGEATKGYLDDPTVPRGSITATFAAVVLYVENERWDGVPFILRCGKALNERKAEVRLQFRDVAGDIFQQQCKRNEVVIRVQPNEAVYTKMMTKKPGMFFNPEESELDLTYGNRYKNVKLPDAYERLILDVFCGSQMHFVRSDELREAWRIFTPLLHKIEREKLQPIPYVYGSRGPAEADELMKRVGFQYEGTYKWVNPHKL

Q: NC(=O)C1=CN([C@@H]2O[C@H](COP(=O)(O)OP(=O)(O)OC[C@H]3O[C@@H](n4cnc5c(N)ncnc54)[C@H](OP(=O)(O)O)[C@@H]3O)[C@@H](O)[C@H]2O)C=CC1 [NADPH] was tested. Which Ki did it give?
A: Its Ki is 35 µM.
